Test [1] deals with rats. Briefly: contextual fear conditioning in rats (freezing). Format: in vivo, rat. The settings on record: I.V. in DMSO, furosemide 100 mg/kg, bumetanide 50 mg/kg; compared with vehicle alone; FIG. 5. How it is done:
Contextual fear conditioning involves pairing an aversive event, in this case moderate foot shock, with a distinctive environment. The strength of the fear memory is assessed using freezing, a species-typical defensive reaction in rats, marked by complete immobility, except for breathing. […] However, if they are allowed to explore the distinctive environment sometime before the immediate shock, they show intense anxiety and fear when placed back into the same environment. We can take advantage of this fact and, by procedurally dividing contextual fear conditioning into two phases, we can separately study effects of treatments on memory for the context (specifically a hippocampus based process) from learning the association between context and shock or experiencing the aversiveness of the shock (which depend upon emotional response circuitry including amygdala). […] The experiment employed 24 rats. […] Each rat was again placed into the same environment for 8 min during which time freezing was measured, as an index of Pavlovian conditioned fear. […] Measurement of freezing was accomplished through an overhead video camera connected to the microcomputer and was automatically scored using a specialty piece of software, FreezeFrame (OER Inc., Reston, Va.). Total freezing time was analyzed in a one-way analysis of variance (ANOVA) test, with drug dose as the […] factor.

Test [2] concerns rats. Briefly: fear potentiated startle (FPS) test in rats. In kind it is in vivo, rat. How it is done:
Twenty-four rats received a 30 min period of habituation to the FPS apparatus. Twenty-four hours later, baseline startle amplitudes were collected. The rats were then divided into three matched groups based on baseline startle amplitudes. […] Groups 1 and 2 therefore consisted of 8 rats each, with Group 3 consisting of […]. Following baseline startle amplitude collection, 20 light/shock pairings were delivered on two sessions over two consecutive days (i.e., 10 light/shock pairings per day). […] Immediately following injections, startle amplitudes were assessed during startle alone trials and startle plus fear (light followed by startle) trials. Fear potentiated startle (light+startle amplitudes minus startle alone amplitudes) was compared between the treatment groups.
Animals were trained and tested in four identical stabilimeter devices (Med-Associates). Briefly, each rat was placed in a small Plexiglas cylinder. The floor of each stabilimeter consisted of four 6-mm-diameter stainless steel bars spaced 18 mm apart through which shock can be delivered. Cylinder movements result in displacement of an accelerometer where the resultant voltage is proportional to the velocity of the cage displacement. Startle amplitude is defined as the maximum accelerometer voltage that occurs during the first 0.25 sec after the startle stimulus is delivered. […] Each stabilimeter was enclosed in a ventilated, light-, and sound-attenuating box. All sound level measurements were made with a Precision Sound Level Meter. The noise of a ventilating fan attached to a sidewall of each wooden box produced an overall background noise level of 64 dB. The startle stimulus was a 50 ms burst of white noise (5 ms rise-decay time) generated by a white noise generator. The visual conditioned stimulus employed was illumination of a light bulb adjacent to the white noise source. The unconditioned stimulus was a 0.6 mA foot shock with duration of 0.5 sec, generated by four constant-current shockers located outside the chamber. The presentation and sequencing of all stimuli were under the control of the microcomputer.
FPS procedures consisted of 5 days of testing; during days 1 and 2 baseline startle responses were collected, days 3 and 4 light/shock pairings were delivered, day 5 testing for fear potentiated startle was conducted.
Matching: On the first two days all rats were placed in the Plexiglas cylinders and 3 min later presented with 30 startle stimuli at a 30 sec interstimulus interval.
Training: On the following 2 days, rats were placed in the Plexiglas cylinders. […] The shock was delivered during the last 0.5 sec of the 3.7 sec CSs at an average intertrial interval of 4 min (range, 3-5 min).
These initial startle stimuli were used to again habituate the rats to the acoustic startle stimuli. Thirty seconds after the last of these stimuli, each animal received 60 startle stimuli with half of the stimuli presented alone (startle alone trials) and the other half presented 3.2 sec after the onset of the 3.7 sec CS (CS-startle trials). All startle stimuli are presented at a mean 30 sec interstimulus interval, randomly varying between 20 and 40 sec.
Measures: The treatment groups were compared on the difference in startle amplitude between CS-startle and startle-alone trials (fear potentiation).
The therapeutic efficacy of several bumetanide analogs in alleviating anxiety was examined using the fear potentiated startle (FPS) test in rats as described above.

The test system of test [3] is rats. Conditions: Granados-Soto et al. Pain 2005; cited from earlier work.
Test [4] relates to human skin. The settings on record: Willis et al.; cited from earlier work.

As to `CCCCNc1cc(C(=O)O)cc(S(N)(=O)=O)c1Oc1ccccc1` [bumetanide], the freezing entry in test [1] is “significantly less freezing”. Moreover, in test [2] (compared with vehicle alone, FIG. 10), the “difference score one week after treatment” value is reported as “higher difference score”. In addition, in test [2] (error bars large for vehicle-treated animals), the “statistical difference from vehicle in difference score one week after treatment” value is given as “does not imply any statistically significant difference”. The “difference score (startle alone - fear potentiated startle) on the test day” value in test [2] (i.v. in DMSO, furosemide 100 mg/kg, bumetanide 70 mg/kg, compared with vehicle alone, FIG. 8) is reported as “statistically significantly lower difference score”. Also, the formalin-induced nociception result in test [3] is “reduced”. Besides, the “sensory nerve activation, itch and flare responses induced by histamine” value in test [4] was “inhibit sensory nerve activation to reduce the itch and flare responses”.
Consider `CCCc1c2oc(C(=O)O)cc(=O)c2cc2c(=O)cc(C(=O)O)n(CC)c12` [nedocromil sodium], for which the “sensory nerve activation, itch and flare responses induced by histamine” value in test [4] was “inhibit sensory nerve activation to reduce the itch and flare responses”.
On to `NS(=O)(=O)c1cc(C(=O)O)cc(N2CCCC2)c1Oc1ccccc1` [piretanide], for which the formalin-induced nociception result in test [3] is on record as “reduced”.
